According to US11597703B2, “Caspase inhibitors and methods of use thereof” (Histogen Inc., priority 2019, dated 2023):
pIC50: −log10 of the molar value.

Columns and labels:
[1] = Rodent model of ulcerative colitis induced by TNBS; format: in vivo, Sprague-Dawley rats; settings: for colon histology: Edema, Submucosal, Mean / colon histology: Erosion/ Ulceration, Mean / colon histology: Hyperplasia, Epithelial, Mean / colon histology: Necrosis, Mucosal/ Gland Loss, Mean / colon histology: SUM Score, Mean / colon histology: Subacute Inflammation, Mucosal/ Submucosal, Mean / colon histology: Subacute Inflammation, Transmural/ Serosal, Mean: DAY 7
Procedure: Compounds of the present invention were tested by oral administration in a rodent model of ulcerative colitis (UC). Ulcerative colitis was induced in Sprague-Dawley rats by instillation of 48 mg/kg […], (TNBS), through the rectum. Testing included 4 active treatment groups and one vehicle control group.
Effect of TNBS-Induced UC in Vehicle Treated Control Group, (Group 1):
Rats were administered of 0.5% vehicle carboxy methylcellulose, (CMC), twice daily starting 24 hours after the instillation of TNBS.
At the termination of the study on DAY 7, the average colon weight in the diseased rats was 5.904±2.208 g, the average colon length was 11.0±1.4 cm and the average distal colon width was 3.1±1.0 cm. Severe adhesions involving multiple intestinal loops, severe stricture resulting in proximal colon distension, ulcers of 6.4±0.4 cm in length, and colonic wall thickness of 3.5±0.8 mm combined to yield an overall colonic score of 11.5±0.8 in the diseased rats. […] Subacute inflammation (sub/mucosal and transmural/serosal were graded separately) was characterized by infiltration and aggregation of neutrophils, eosinophils, lymphocytes, plasma cells, and macrophages. Mucosal necrosis was characterized by damage to, necrosis of, or complete loss of colonic glands. Erosions were characterized by coagulative necrosis or loss of surface epithelium superficial to the muscularis mucosae. Submucosal edema was characterized by expansion of the submucosa by clear space or pale eosinophilic fluid, variably accompanied by dilation of lymphatic vessels and similar edematous expansion of the lamina propria. Epithelial hyperplasia was characterized by elongation of colonic glands and increased numbers of epithelial mitotic figures.

[2] = molecular target: T1, Caspase-1 (Homo sapiens, UniProt P29466); assay: Caspase-1 enzyme inhibition assay (Ac-YVAD-pNA substrate), IC50; format: biochemical
T1 construct: purchased Enzo Biosciences
T1 sequence (P29466 120-297 limits assumed): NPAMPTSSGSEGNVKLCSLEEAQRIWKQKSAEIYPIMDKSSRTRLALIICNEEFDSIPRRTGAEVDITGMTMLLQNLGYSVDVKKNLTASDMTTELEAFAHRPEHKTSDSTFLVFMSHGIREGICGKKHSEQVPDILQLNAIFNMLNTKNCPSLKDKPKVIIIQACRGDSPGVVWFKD
T1 sequence (P29466 317-404 limits assumed): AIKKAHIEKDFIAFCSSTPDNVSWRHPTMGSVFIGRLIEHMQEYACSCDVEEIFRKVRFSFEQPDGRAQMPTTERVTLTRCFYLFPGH
How it was run: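 Buffer was 50 mM HEPES pH 7.4, 100 mM NaCl, 0.1% CHAPS, 1 mM EDTA, 10% glycerol and 10 mM DTT. Caspase-1 was reacted with 200 μM Ac-YVAD-pNA (final). Release of p-nitroaniline was followed continuously at 405 nm, and rates were taken from the linear slope (ε 10,500 M-1 cm-1).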

[3] = molecular target: T2, Caspase 7 (Homo sapiens, UniProt P55210); assay: Caspase 7 enzymatic inhibition assay, IC50; format: biochemical; settings: read-out: Caspase 7 enzyme inhibition IC50
T2 construct: purchased Enzo Biosciences
T2 sequence (P55210 24-198 limits assumed): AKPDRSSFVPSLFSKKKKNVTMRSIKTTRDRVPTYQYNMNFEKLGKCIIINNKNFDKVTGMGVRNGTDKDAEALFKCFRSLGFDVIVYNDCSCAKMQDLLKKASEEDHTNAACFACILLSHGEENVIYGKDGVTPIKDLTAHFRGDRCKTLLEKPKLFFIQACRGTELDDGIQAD
T2 sequence (P55210 207-303 limits assumed): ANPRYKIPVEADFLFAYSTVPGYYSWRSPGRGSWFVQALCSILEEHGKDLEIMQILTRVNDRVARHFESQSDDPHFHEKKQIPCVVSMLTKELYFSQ
How it was run: (§1)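 Commercially sourced human caspases. Activity assays followed the maker's instructions for caspase-3, 6 and 7. Potency given as IC50.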

[4] = molecular target: T3, Caspase 6 (Homo sapiens, UniProt P55212); assay: Caspase 6 enzymatic inhibition assay, IC50; format: biochemical; settings: read-out: Caspase 6 enzyme inhibition IC50
T3 construct: purchased Enzo Biosciences
T3 sequence (P55212 24-179 limits assumed): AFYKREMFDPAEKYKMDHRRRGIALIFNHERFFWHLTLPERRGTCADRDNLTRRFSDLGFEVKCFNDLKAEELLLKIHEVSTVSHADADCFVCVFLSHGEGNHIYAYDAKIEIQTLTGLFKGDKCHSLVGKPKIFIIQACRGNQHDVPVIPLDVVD
T3 sequence (P55212 194-293 limits assumed): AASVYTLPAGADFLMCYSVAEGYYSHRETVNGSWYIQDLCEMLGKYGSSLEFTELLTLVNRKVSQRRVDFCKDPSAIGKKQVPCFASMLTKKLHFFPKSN
How it was run: as §1

[5] = Group 3, 10 mg/kg/dose twice daily oral
[6] = Group 4, 30 mg/kg/dose twice daily oral
[7] = Group 5, 100 mg/kg/dose twice daily oral
[8] = all dose groups (10, 30, 100 mg/kg/dose twice daily oral)

pIC50 [2]: ≥ 8.00 | pIC50 [3]: ≤ 6.00 | pIC50 [4]: ≤ 6.00
Structure (SMILES): C[C@H](NC(=O)C(=O)Nc1c(F)cccc1F)C(=O)N[C@@H](CCC(=O)O)C(=O)COc1c(F)c(F)cc(F)c1F [Example 6, (S)-4-((S)-2-(2-((2,6-Difluorophenyl)amino)-2-oxoacetamido)propanamido)-5-oxo-6-(2,3,5,6-tetrafluorophenoxy)hexanoic acid]
body weights, onset of significant improvement [1, 5]: significantly improved beginning on DAY 4 | colon histology: Edema, Submucosal, Mean [1, 5]: 3.2 | colon histology: Erosion/ Ulceration, Mean [1, 5]: 4.0 | colon histology: Hyperplasia, Epithelial, Mean [1, 5]: 3.4 | colon histology: Necrosis, Mucosal/ Gland Loss, Mean [1, 5]: 4.0 | colon histology: SUM Score, Mean [1, 5]: 19.3 | colon histology: Subacute Inflammation, Mucosal/ Submucosal, Mean [1, 5]: 4.3 | colon histology: Subacute Inflammation, Transmural/ Serosal, Mean [1, 5]: 3.9 | average animal weight, Mean ([1]; Group 3, 10 mpk twice daily oral, study day 0): 241 g | average animal weight, Mean ([1]; Group 3, 10 mpk twice daily oral, study day 1): 236 g | average animal weight, Mean ([1]; Group 3, 10 mpk twice daily oral, study day 2): 223 g | average animal weight, Mean ([1]; Group 3, 10 mpk twice daily oral, study day 3): 218 g | average animal weight, Mean ([1]; Group 3, 10 mpk twice daily oral, study day 4): 218 g | average animal weight, Mean ([1]; Group 3, 10 mpk twice daily oral, study day 5): 222 g | average animal weight, Mean ([1]; Group 3, 10 mpk twice daily oral, study day 6): 227 g | average animal weight, Mean ([1]; Group 3, 10 mpk twice daily oral, study day 7): 228 g | average animal weight, Mean ([1]; Group 3, 10 mpk twice daily oral, study day −1): 256 g | average animal weight, Mean ([1]; Group 3, 10 mpk twice daily oral, study day −5): 222 g | body weights, onset of significant improvement [1, 6]: statistically significantly improved body weights starting on DAY 5 | reduction in overall colonic score [1, 6]: 40% | colon histology: Edema, Submucosal, Mean [1, 6]: 2.6 | colon histology: Erosion/ Ulceration, Mean [1, 6]: 3.4 | colon histology: Hyperplasia, Epithelial, Mean [1, 6]: 3.1 | colon histology: Necrosis, Mucosal/ Gland Loss, Mean [1, 6]: 3.4 | colon histology: SUM Score, Mean [1, 6]: 17.6 | colon histology: Subacute Inflammation, Mucosal/ Submucosal, Mean [1, 6]: 3.9 | colon histology: Subacute Inflammation, Transmural/ Serosal, Mean [1, 6]: 3.2 | average animal weight, Mean ([1]; Group 4, 30 mpk twice daily oral, study day 0): 234 g | average animal weight, Mean ([1]; Group 4, 30 mpk twice daily oral, study day 1): 228 g | average animal weight, Mean ([1]; Group 4, 30 mpk twice daily oral, study day 2): 215 g | average animal weight, Mean ([1]; Group 4, 30 mpk twice daily oral, study day 3): 214 g | average animal weight, Mean ([1]; Group 4, 30 mpk twice daily oral, study day 4): 216 g | average animal weight, Mean ([1]; Group 4, 30 mpk twice daily oral, study day 5): 218 g | average animal weight, Mean ([1]; Group 4, 30 mpk twice daily oral, study day 6): 220 g | average animal weight, Mean ([1]; Group 4, 30 mpk twice daily oral, study day 7): 223 g | average animal weight, Mean ([1]; Group 4, 30 mpk twice daily oral, study day −1): 248 g | average animal weight, Mean ([1]; Group 4, 30 mpk twice daily oral, study day −5): 222 g | body weights, onset of significant improvement [1, 7]: statistically significantly improved body weights starting on DAY 5 | colon histology: Edema, Submucosal, Mean [1, 7]: 3.0 | colon histology: Erosion/ Ulceration, Mean [1, 7]: 3.6 | colon histology: Hyperplasia, Epithelial, Mean [1, 7]: 3.0 | colon histology: Necrosis, Mucosal/ Gland Loss, Mean [1, 7]: 3.6 | colon histology: SUM Score, Mean [1, 7]: 17.5 | colon histology: Subacute Inflammation, Mucosal/ Submucosal, Mean [1, 7]: 3.9 | colon histology: Subacute Inflammation, Transmural/ Serosal, Mean [1, 7]: 3.4 | average animal weight, Mean ([1]; Group 5, 100 mpk twice daily oral, study day 0): 232 g | average animal weight, Mean ([1]; Group 5, 100 mpk twice daily oral, study day 1): 231 g | average animal weight, Mean ([1]; Group 5, 100 mpk twice daily oral, study day 2): 219 g | average animal weight, Mean ([1]; Group 5, 100 mpk twice daily oral, study day 3): 213 g | average animal weight, Mean ([1]; Group 5, 100 mpk twice daily oral, study day 4): 217 g | average animal weight, Mean ([1]; Group 5, 100 mpk twice daily oral, study day 5): 220 g | average animal weight, Mean ([1]; Group 5, 100 mpk twice daily oral, study day 6): 222 g | average animal weight, Mean ([1]; Group 5, 100 mpk twice daily oral, study day 7): 225 g | average animal weight, Mean ([1]; Group 5, 100 mpk twice daily oral, study day −1): 246 g | average animal weight, Mean ([1]; Group 5, 100 mpk twice daily oral, study day −5): 222 g | SUM scores of colon histological parameters [1, 8]: statistically significant improvement | overall colonic score [1, 8]: statistically significant improvement
